According to the supplement of paper PMC10307832:

Columns and labels:
Assay in all cases: relative viability (nuclei count vs DMSO), 5 days (fraction); higher = more cells survive
[1] = compound: CC1=NN=C(O1)C2=NN=C(C=C2)N3CCC(CC3)OC4=C(C=CC(=C4)F)Cl + CS(=O)(=O)N1CCN(Cc2cc3nc(-c4cccc5[nH]ncc45)nc(N4CCOCC4)c3s2)CC1 [Pictilisib] (partner 1 µM)
Summary of the method: (§1)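 After 5 days of treatment, lung cancer cells in 1536-well plates were fixed and stained in a single step (final 0.05% Triton X-100, 1% formaldehyde, 1 ug/ml Hoechst) and their nuclei counted on 4× images. Treatment had been applied by pin tool the day after seeding as one drug alone or as a fixed anchor-drug dose with five library-drug doses (not always all listed) in √10 steps. Relative viability is the nuclei count of treated wells divided by that of vehicle wells, and values are medians of duplicate plates.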

Tosedostat + Trametinib = compound: CC(C)C[C@@H](C(=O)N[C@H](C(=O)OC1CCCC1)c1ccccc1)[C@H](O)C(=O)NO [Tosedostat] + CC(=O)Nc1cccc(-n2c(=O)n(C3CC3)c(=O)c3c(Nc4ccc(I)cc4F)n(C)c(=O)c(C)c32)c1 [Trametinib] (partner 0.02 µM)
Summary of the method: as §1

[2] = compound: CC1=NN=C(O1)C2=NN=C(C=C2)N3CCC(CC3)OC4=C(C=CC(=C4)F)Cl + O=C(c1cc(Cc2n[nH]c(=O)c3ccccc23)ccc1F)N1CCN(C(=O)C2CC2)CC1 [Olaparib] (partner 8 µM)
Summary of the method: as §1

Tosedostat + Luminespib = compound: CC(C)C[C@@H](C(=O)N[C@H](C(=O)OC1CCCC1)c1ccccc1)[C@H](O)C(=O)NO [Tosedostat] + CCNC(=O)c1noc(-c2cc(C(C)C)c(O)cc2O)c1-c1ccc(CN2CCOCC2)cc1 [Luminespib] (partner 0.01 µM)
Summary of the method: as §1

Cell Line	relative viability ([1]; first compound 0.253 µM)	relative viability ([1]; first compound 0.8 µM)	relative viability ([1]; first compound 2.53 µM)	relative viability ([1]; first compound 8 µM)	relative viability (Tosedostat + Trametinib; first compound 0.02 µM)	relative viability (Tosedostat + Trametinib; first compound 0.06325 µM)	relative viability (Tosedostat + Trametinib; first compound 0.2 µM)	relative viability (Tosedostat + Trametinib; first compound 0.6325 µM)	relative viability (Tosedostat + Trametinib; first compound 2 µM)	relative viability ([2]; first compound 0.253 µM)	relative viability ([2]; first compound 0.8 µM)	relative viability ([2]; first compound 2.53 µM)	relative viability ([2]; first compound 8 µM)	relative viability (Tosedostat + Luminespib; first compound 0.02 µM)	relative viability (Tosedostat + Luminespib; first compound 0.06325 µM)	relative viability (Tosedostat + Luminespib; first compound 0.2 µM)	relative viability (Tosedostat + Luminespib; first compound 0.6325 µM)	relative viability (Tosedostat + Luminespib; first compound 2 µM)
NCI-H1915	0.763	0.586	0.698	0.563	0.295	0.313	0.292	0.3	0.283	0.202	0.17	0.184	0.162	0.864	0.79	0.814	0.803	0.608
NCI-H1944	0.31	0.381	0.381	0.331	0.422	0.396	0.4	0.395	0.422	0.289	0.337	0.359	0.344	0.855	0.599	0.758	0.724	0.748
NCI-H1975	–	0.332	0.411	0.402	0.35	0.401	0.453	0.359	0.344	0.466	0.574	0.518	0.533	0.208	0.195	0.382	0.325	0.19
NCI-H1993	0.742	0.78	0.821	0.789	0.501	0.61	0.535	0.498	0.504	0.894	0.758	0.855	0.856	0.87	0.736	1.05	0.827	0.781
NCI-H2009	0.711	0.618	0.659	0.637	0.248	0.325	0.321	0.293	0.276	0.363	0.39	0.421	0.375	1.12	1	1.05	0.97	1.04
NCI-H2023	0.22	0.27	0.308	0.18	0.607	0.496	0.465	0.45	0.502	0.311	0.274	0.307	0.235	0.912	0.628	0.796	0.571	0.614
NCI-H2085	0.387	0.471	0.452	0.39	–	0.436	0.677	0.403	0.637	0.636	0.604	0.709	0.553	0.377	0.969	0.491	0.407	0.4
NCI-H2087	0.769	0.604	0.795	0.66	0.181	0.17	0.172	0.228	0.132	0.502	0.34	0.485	0.425	0.181	0.158	0.273	0.229	0.21
NCI-H2126	0.433	0.478	0.441	0.412	0.493	0.59	0.568	0.584	0.481	0.816	0.697	0.767	0.76	0.848	0.905	0.91	0.878	0.654
NCI-H2170	0.282	0.335	0.368	0.274	0.945	0.971	0.925	0.894	0.915	0.303	0.248	0.342	0.256	0.819	0.637	0.612	0.592	0.662
NCI-H2228	0.297	0.313	0.538	0.404	0.666	0.57	0.466	0.534	0.421	0.461	0.291	0.702	0.637	0.149	0.132	0.198	0.188	0.12
NCI-H2347	0.024	0.53	0.422	0.753	0.297	0.295	0.33	0.262	0.321	0.49	0.49	0.552	0.44	0.421	0.425	0.594	0.417	0.474
NCI-H2405	0.401	0.523	0.4	0.385	0.652	0.657	0.79	0.699	0.614	0.586	0.469	0.514	0.499	0.8	0.809	0.838	0.786	0.79
NCI-H3122	0.643	0.593	0.648	0.642	0.201	0.258	0.193	0.25	0.183	0.283	0.273	0.336	0.293	0.0953	0.083	0.106	0.122	0.132
PC-3 [JPC-3]	0.602	0.677	0.84	0.654	0.752	0.629	0.733	0.614	0.514	1	0.899	0.997	1.04	0.735	0.734	0.731	0.692	0.537
PC-14	0.603	0.735	0.781	0.702	0.856	0.758	0.781	0.67	0.531	0.257	0.226	0.317	0.266	0.163	0.197	0.16	0.207	0.127
RERF-LC-KJ	0.561	0.529	0.482	0.454	0.878	0.784	0.81	0.782	0.686	0.377	0.536	0.553	0.529	1.35	1.23	1.36	1.08	1.2
